In patent US6461997B1, “Triazole sulfones having herbicidal activity” (Monsanto Technology LLC, priority 1999, dated 2002):

Assays:
[1] = tested on: CIRAR (canada thistle (seedling)); assay: Pre-emergence herbicidal activity, warm season; type: in vivo, Cirsium arvense; settings: GR80 = lowest tested rate (300, 100, 30, 10 g/ha) with 80% or greater inhibition; approx. 14 days after treating; 30/21° C.
Outline: (§1)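 Seeds sown in sterilised fertilised topsoil received surface-applied compound in 50:50 acetone/water, typically at 300, 100, 30 and 10 g/ha, then greenhouse-grown at 30/21° C (warm-season species) or 18/13° C (cool-season species). Percent inhibition versus untreated plants was scored at about 14 days, giving GR80; an asterisk marks activity short of 80% at the top rate.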

[2] = tested on: LAMPU (purple deadnettle); assay: Pre-emergence herbicidal activity, cool season; type: in vivo, Lamium purpureum; settings: lowest tested rate with 80% or greater inhibition; rates 300, 100, 30, 10 g/ha; about 14 days
Outline: as §1

ALOMY (blackgrass) = assay: Pre-emergence herbicidal activity, cool season; type: in vivo, Alopecurus myosuroides; settings: GR80 = lowest tested rate (300, 100, 30, 10 g/ha) with 80% or greater inhibition; approx. 14 days after treating; 18/13° C.
Outline: (§2)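 Each pot received seeds on sterilized fertilized topsoil, a soil cover, and a surface spray of compound (300–10 g/ha, acetone/water 50:50). Plants grew about 14 days at 30/21 °C (PANMI, DIGSA) or 18/13 °C (ALOMY, POLCO) before inhibition was rated against untreated pots to give GR80.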

SOLNI (black nightshade) = assay: Pre-emergence herbicidal activity, warm season; type: in vivo, Solanum nigrum; settings: GR80 = lowest tested rate (300, 100, 30, 10 g/ha) with 80% or greater inhibition; approx. 14 days after treating; 30/21° C.
Outline: as §1

SETVI (green foxtail) = assay: Pre-emergence herbicidal activity, cool season; type: in vivo, Setaria viridis; settings: GR80 = lowest tested rate (300, 100, 30, 10 g/ha) with 80% or greater inhibition; approx. 14 days after treating; 18/13° C.
Outline: as §1

DIGSA (large crabgrass) = assay: Pre-emergence herbicidal activity, warm season; type: in vivo, Digitaria sanguinalis; settings: GR80 = lowest tested rate (300, 100, 30, 10 g/ha) with 80% or greater inhibition; approx. 14 days after treating; 30/21° C.
Outline: as §2

ECHCG (barnyardgrass) = assay: Pre-emergence herbicidal activity, warm season; type: in vivo, Echinochloa crus-galli; settings: GR80 = lowest tested rate (300, 100, 30, 10 g/ha) with 80% or greater inhibition; approx. 14 days after treating; 30/21° C.
Outline: as §1

[3] = tested on: SORHA (johnsongrass (seedling)); assay: Pre-emergence herbicidal activity, warm season; type: in vivo, Sorghum halepense; settings: GR80 = lowest tested rate (300, 100, 30, 10 g/ha) with 80% or greater inhibition; approx. 14 days after treating; 30/21° C.
Outline: as §1

SINAR (wild mustard) = assay: Pre-emergence herbicidal activity, cool season; type: in vivo, Sinapis arvensis; settings: lowest tested rate with 80% or greater inhibition; rates 300, 100, 30, 10 g/ha; about 14 days
Outline: as §1

AMARE (redroot pigweed) = assay: Pre-emergence herbicidal activity, warm season; type: in vivo, Amaranthus retroflexus; settings: GR80 = lowest tested rate (300, 100, 30, 10 g/ha) with 80% or greater inhibition; approx. 14 days after treating; 30/21° C.
Outline: as §1

[4] = tested on: PANMI (wild proso millet); assay: Pre-emergence herbicidal activity, warm season; type: in vivo, Panicum miliaceum; settings: GR80 = lowest tested rate (300, 100, 30, 10 g/ha) with 80% or greater inhibition; approx. 14 days after treating; 30/21° C.
Outline: as §2

POLCO (wild buckwheat) = assay: Pre-emergence herbicidal activity, cool season; type: in vivo, Polygonum convolvulus; settings: lowest tested rate with 80% or greater inhibition; rates 300, 100, 30, 10 g/ha; about 14 days
Outline: as §2

SASKR (russian thistle) = assay: Pre-emergence herbicidal activity, cool season; type: in vivo, Salsola kali; settings: lowest tested rate with 80% or greater inhibition; rates 300, 100, 30, 10 g/ha; about 14 days
Outline: as §1

[5] = tested on: AGRRE (quackgrass (seedling)); assay: Pre-emergence herbicidal activity, cool season; type: in vivo, Elymus repens; settings: GR80 = lowest tested rate (300, 100, 30, 10 g/ha) with 80% or greater inhibition; approx. 14 days after treating; 18/13° C.
Procedure: (§3) Tables 5 to 8 summarize results of tests conducted as described below to determine the pre-emergence herbicidal activity, in the form of a GR80 value, of illustrative compounds of this invention. […] Compounds of the invention were typically applied at rates of 300, 100, 30, and 10 g/ha. Where herbicidal activity was evident but 80% inhibition was not achieved at the highest rate tested, an asterisk (*) is shown in the following tables.
(§4) The pre-emergence tests were conducted by the following procedure. Topsoil was sieved to pass through a 1.27 cm screen. Fertilizer was added to the topsoil and the mixture was then sterilized by heating. The topsoil mixture was placed in a pot and compacted to a depth of 1.0 to 1.25 cm from the top of the pot. Seeds of each of several monocotyledonous and dicotyledonous annual plant species were placed on top of the soil. Additional soil was subsequently placed over the seeds to level-fill the pot. A known amount of each test compound dissolved or suspended in an appropriate organic solvent was diluted with a 50:50 mix of acetone and water and applied to the surface of the soil. After treatment the plants were placed in a greenhouse where they received 0.64 cm of overhead irrigation. All subsequent watering consisted of a light overhead mist and/or subirrigation as needed for germination and growth. Tables 5 and 6 below relate to warm season plant species which were placed after pre-emergence treatment in a greenhouse with a 30/21° C. day/night temperature regime. Tables 7 and 8 below relates to cool season plant species placed after pre-emergence treatment in a greenhouse or growth chamber with an 18/13° C. day/night temperature regime.
(§5) Approximately 14 days after planting and treating, the plants were observed and herbicidal efficacy recorded as percent inhibition by comparison with untreated plants.
(§6) The plant species usually regarded as weeds which were utilized in the tests are identified in the tables below according to the following legend, in which “d” indicates a dicotyledonous species and “m” a monocotyledonous species. All monocotyledonous species included in the tests herein are grasses.

[6] = tested on: VERPE (creeping speedwell); assay: Pre-emergence herbicidal activity, cool season; type: in vivo, Veronica persicaria; settings: lowest tested rate with 80% or greater inhibition; rates 300, 100, 30, 10 g/ha; about 14 days
Outline: as §1

[7] = tested on: GALAP (catchweed bedstraw); assay: Pre-emergence herbicidal activity, cool season; type: in vivo, Galium aparine; settings: lowest tested rate with 80% or greater inhibition; rates 300, 100, 30, 10 g/ha; about 14 days
Outline: as §1

[8] = tested on: BRAPP (broadleaf signalgrass); assay: Pre-emergence herbicidal activity, warm season; type: in vivo, Brachiaria platyphylla; settings: GR80 = lowest tested rate (300, 100, 30, 10 g/ha) with 80% or greater inhibition; approx. 14 days after treating; 30/21° C.
Outline: as §1

[9] = tested on: CHEAL (common lambsquarters); assay: Pre-emergence herbicidal activity, warm season; type: in vivo, Chenopodium album; settings: GR80 = lowest tested rate (300, 100, 30, 10 g/ha) with 80% or greater inhibition; approx. 14 days after treating; 30/21° C.
Outline: as §1

KCHSC (kochia) = assay: Pre-emergence herbicidal activity, cool season; type: in vivo, Kochia scoparia; settings: lowest tested rate with 80% or greater inhibition; rates 300, 100, 30, 10 g/ha; about 14 days
Procedure: as §3, §4, §5, §6

[10] = tested on: AGSST (creeping bentgrass); assay: Pre-emergence herbicidal activity, cool season; type: in vivo, Agrostis stolonifera; settings: GR80 = lowest tested rate (300, 100, 30, 10 g/ha) with 80% or greater inhibition; approx. 14 days after treating; 18/13° C.
Outline: as §1

STEME (common chickweed) = assay: Pre-emergence herbicidal activity, cool season; type: in vivo, Stellaria media; settings: lowest tested rate with 80% or greater inhibition; rates 300, 100, 30, 10 g/ha; about 14 days
Outline: as §1

SETFA (giant foxtail) = assay: Pre-emergence herbicidal activity, warm season; type: in vivo, Setaria faberi; settings: GR80 = lowest tested rate (300, 100, 30, 10 g/ha) with 80% or greater inhibition; approx. 14 days after treating; 30/21° C.
Outline: as §1

Compound: CCN(CC)C(=O)n1cnc(S(=O)(=O)C(F)(F)c2ccccc2)n1 [Example 5]
- Pre-emergence activity (GR80) CIRAR [1]: 100 g/ha
- Pre-emergence activity GR80, LAMPU [2]: [empty]
- Pre-emergence activity (GR80) ALOMY (ALOMY (blackgrass)): * (activity observed, at least at highest rate, but <80% inhibition)
- Pre-emergence activity (GR80) SOLNI (SOLNI (black nightshade)): 300 g/ha
- Pre-emergence activity (GR80) SETVI (SETVI (green foxtail)): 100 g/ha
- Pre-emergence activity (GR80) DIGSA (DIGSA (large crabgrass)): 100 g/ha
- Pre-emergence activity (GR80) ECHCG (ECHCG (barnyardgrass)): 300 g/ha
- Pre-emergence activity (GR80) SORHA [3]: 100 g/ha
- Pre-emergence activity GR80, SINAR (SINAR (wild mustard)): 100 g/ha
- Pre-emergence activity (GR80) AMARE (AMARE (redroot pigweed)): 100 g/ha
- Pre-emergence activity (GR80) PANMI [4]: 100 g/ha
- Pre-emergence activity GR80, POLCO (POLCO (wild buckwheat)): [empty]
- Pre-emergence activity GR80, SASKR (SASKR (russian thistle)): 300 g/ha
- Pre-emergence activity (GR80) AGRRE [5]: * (activity observed, at least at highest rate, but <80% inhibition)
- Pre-emergence activity GR80, VERPE [6]: 100 g/ha
- Pre-emergence activity GR80, GALAP [7]: [empty]
- Pre-emergence activity (GR80) BRAPP [8]: 300 g/ha
- Pre-emergence activity (GR80) CHEAL [9]: 300 g/ha
- Pre-emergence activity GR80, KCHSC (KCHSC (kochia)): [empty]
- Pre-emergence activity (GR80) AGSST [10]: 30 g/ha
- Pre-emergence activity GR80, STEME (STEME (common chickweed)): [empty]
- Pre-emergence activity (GR80) SETFA (SETFA (giant foxtail)): 100 g/ha
